# Experimental data taken from PubChem BioAssay AID1963979 (Molecular Pharmacology Branch, DTP, NCI, 2024).
# Test system: 361931-004-R-J1-PDC multicell spheroid viability
# Assay: Anticancer human tumor 361931-004-R-J1-PDC patient-derived colon adenocarcinoma cell line growth inhibition [PI3K]
# Details: for IC50: curve of first compound; for viability, T/C: stronger effect = lower value
# Summary of the method: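 Complex 3D spheroids (cancer cells + endothelial HUVEC + mesenchymal stem cells); drug pairs of targeted agent x inavolisib/alpelisib/duvelisib/copanlisib; half-log series from ~Cmax, max 10 microM if Cmax unknown; endpoint viability.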
# [1] = second compound 0.0316 µM, first compound 0.0316 µM
# [2] = second compound 0.0316 µM, first compound 0.1 µM
# [3] = second compound 0.0316 µM, first compound 0.316 µM
# [4] = second compound 0.0316 µM, first compound 1 µM
# [5] = second compound 0.0316 µM, first compound 3.16 µM
# [6] = second compound 0.0316 µM, first compound 10 µM
# [7] = second compound 0.1 µM, first compound 0.0316 µM
# [8] = second compound 0.1 µM, first compound 0.1 µM
# [9] = second compound 0.1 µM, first compound 0.316 µM
# [10] = second compound 0.1 µM, first compound 1 µM
# [11] = second compound 0.1 µM, first compound 3.16 µM
# [12] = second compound 0.1 µM, first compound 10 µM
# [13] = second compound 0.316 µM, first compound 0.0316 µM
# [14] = second compound 0.316 µM, first compound 0.1 µM
# [15] = second compound 0.316 µM, first compound 0.316 µM
# [16] = second compound 0.316 µM, first compound 1 µM
# [17] = second compound 0.316 µM, first compound 3.16 µM
# [18] = second compound 0.316 µM, first compound 10 µM
# [19] = second compound 1 µM, first compound 0.0316 µM
# [20] = second compound 1 µM, first compound 0.1 µM
# [21] = second compound 1 µM, first compound 0.316 µM
# [22] = second compound 1 µM, first compound 1 µM
# [23] = second compound 1 µM, first compound 3.16 µM
# [24] = second compound 1 µM, first compound 10 µM
# [25] = second compound 3.16 µM, first compound 0.0316 µM
# [26] = second compound 3.16 µM, first compound 0.1 µM
# [27] = second compound 3.16 µM, first compound 0.316 µM
# [28] = second compound 3.16 µM, first compound 1 µM
# [29] = second compound 3.16 µM, first compound 3.16 µM
# [30] = second compound 3.16 µM, first compound 10 µM
# [31] = second compound 10 µM, first compound 0.0316 µM
# [32] = second compound 10 µM, first compound 0.1 µM
# [33] = second compound 10 µM, first compound 0.316 µM
# [34] = second compound 10 µM, first compound 1 µM
# [35] = second compound 10 µM, first compound 3.16 µM
# [36] = second compound 10 µM, first compound 10 µM
# 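Also: spheroids exposed to agents for seven days before readout.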
smiles,measurement,setting,value
C#Cc1c(F)ccc2cc(O)cc(-c3ncc4c(N5CC6CCC(C5)N6)nc(OCC56CCCN5CC(F)C6)nc4c3F)c12 (stereo not drawn) + CC(Nc1ncnc2nc[nH]c12)c1cc2cccc(Cl)c2c(=O)n1-c1ccccc1,IC50,second compound 0.0316 µM,> 10 µM
same,IC50,second compound 0.1 µM,> 10 µM
same,IC50,second compound 0.316 µM,> 10 µM
same,IC50,second compound 1 µM,> 10 µM
same,IC50,second compound 3.16 µM,> 10 µM
same,IC50,second compound 10 µM,> 10 µM
same,"viability, T/C",[1],98.8%
same,"viability, T/C",[2],105%
same,"viability, T/C",[3],105%
same,"viability, T/C",[4],102%
same,"viability, T/C",[5],98.9%
same,"viability, T/C",[6],95.1%
same,"viability, T/C",[7],105%
same,"viability, T/C",[8],103%
same,"viability, T/C",[9],96.8%
same,"viability, T/C",[10],100%
same,"viability, T/C",[11],104%
same,"viability, T/C",[12],93%
same,"viability, T/C",[13],106%
same,"viability, T/C",[14],99.7%
same,"viability, T/C",[15],105%
same,"viability, T/C",[16],100%
same,"viability, T/C",[17],102%
same,"viability, T/C",[18],93.3%
same,"viability, T/C",[19],97.7%
same,"viability, T/C",[20],98.6%
same,"viability, T/C",[21],100%
same,"viability, T/C",[22],95.2%
same,"viability, T/C",[23],104%
same,"viability, T/C",[24],84.4%
same,"viability, T/C",[25],104%
same,"viability, T/C",[26],107%
same,"viability, T/C",[27],103%
same,"viability, T/C",[28],106%
same,"viability, T/C",[29],107%
same,"viability, T/C",[30],81.9%
same,"viability, T/C",[31],104%
same,"viability, T/C",[32],99.8%
same,"viability, T/C",[33],91.9%
same,"viability, T/C",[34],91%
same,"viability, T/C",[35],90%
same,"viability, T/C",[36],79%
CC1(C)CCC(Nc2ncc(C(F)(F)F)c(-c3c[nH]c4c(P(C)(C)=O)c(C#N)ccc34)n2)CN1 (stereo not drawn) + CC(Nc1ncnc2nc[nH]c12)c1cc2cccc(Cl)c2c(=O)n1-c1ccccc1,IC50,second compound 0.0316 µM,6.27 µM
same,IC50,second compound 0.1 µM,5.92 µM
same,IC50,second compound 0.316 µM,5.95 µM
same,IC50,second compound 1 µM,5.58 µM
same,IC50,second compound 3.16 µM,5.2 µM
same,IC50,second compound 10 µM,4.73 µM
same,"viability, T/C",[1],106%
same,"viability, T/C",[2],108%
same,"viability, T/C",[3],104%
same,"viability, T/C",[4],101%
same,"viability, T/C",[5],103%
same,"viability, T/C",[6],13.7%
same,"viability, T/C",[7],122%
same,"viability, T/C",[8],103%
same,"viability, T/C",[9],96%
same,"viability, T/C",[10],101%
same,"viability, T/C",[11],93.4%
same,"viability, T/C",[12],14.5%
same,"viability, T/C",[13],108%
same,"viability, T/C",[14],106%
same,"viability, T/C",[15],99.4%
same,"viability, T/C",[16],98%
same,"viability, T/C",[17],95.8%
same,"viability, T/C",[18],12.4%
same,"viability, T/C",[19],110%
same,"viability, T/C",[20],101%
same,"viability, T/C",[21],98.8%
same,"viability, T/C",[22],98.4%
same,"viability, T/C",[23],86.9%
same,"viability, T/C",[24],12.8%
same,"viability, T/C",[25],105%
same,"viability, T/C",[26],94.9%
same,"viability, T/C",[27],95.8%
same,"viability, T/C",[28],94.1%
same,"viability, T/C",[29],80.6%
same,"viability, T/C",[30],10.6%
same,"viability, T/C",[31],93.1%
same,"viability, T/C",[32],90.8%
same,"viability, T/C",[33],88.9%
same,"viability, T/C",[34],88%
same,"viability, T/C",[35],74%
same,"viability, T/C",[36],5.6%
CNC(=O)c1ccc(N2C(=S)N(c3ccc(C#N)c(C(F)(F)F)c3)C(=O)C2(C)C)cc1F + COc1c(OCCCN2CCOCC2)ccc2c3n(c(=NC(=O)c4cnc(N)nc4)nc12)CCN3,IC50,second compound 0.00316 µM,> 10 µM
same,IC50,second compound 0.01 µM,> 10 µM
same,IC50,second compound 0.0316 µM,> 10 µM
same,IC50,second compound 0.1 µM,> 10 µM
same,IC50,second compound 0.316 µM,3.98 µM
same,IC50,second compound 1 µM,< 0.0316 µM
same,"viability, T/C","second compound 0.00316 µM, first compound 0.0316 µM",103%
same,"viability, T/C","second compound 0.00316 µM, first compound 0.1 µM",102%
same,"viability, T/C","second compound 0.00316 µM, first compound 0.316 µM",97.6%
same,"viability, T/C","second compound 0.00316 µM, first compound 1 µM",103%
same,"viability, T/C","second compound 0.00316 µM, first compound 3.16 µM",105%
same,"viability, T/C","second compound 0.00316 µM, first compound 10 µM",88.5%
same,"viability, T/C","second compound 0.01 µM, first compound 0.0316 µM",95.5%
same,"viability, T/C","second compound 0.01 µM, first compound 0.1 µM",101%
same,"viability, T/C","second compound 0.01 µM, first compound 0.316 µM",98.8%
same,"viability, T/C","second compound 0.01 µM, first compound 1 µM",98.2%
same,"viability, T/C","second compound 0.01 µM, first compound 3.16 µM",98.7%
same,"viability, T/C","second compound 0.01 µM, first compound 10 µM",86.2%
same,"viability, T/C",[1],83.6%
same,"viability, T/C",[2],92.3%
same,"viability, T/C",[3],91.7%
same,"viability, T/C",[4],90%
same,"viability, T/C",[5],95.7%
same,"viability, T/C",[6],88.4%
same,"viability, T/C",[7],81.1%
same,"viability, T/C",[8],82.5%
same,"viability, T/C",[9],76.1%
same,"viability, T/C",[10],81.5%
same,"viability, T/C",[11],86.1%
same,"viability, T/C",[12],65.8%
same,"viability, T/C",[13],56.2%
same,"viability, T/C",[14],53%
same,"viability, T/C",[15],54.1%
same,"viability, T/C",[16],57.5%
same,"viability, T/C",[17],52.8%
same,"viability, T/C",[18],36.7%
same,"viability, T/C",[19],28.7%
same,"viability, T/C",[20],22.2%
same,"viability, T/C",[21],22.7%
same,"viability, T/C",[22],26.8%
same,"viability, T/C",[23],26.5%
same,"viability, T/C",[24],17.1%
Cn1cnc2c(F)c(Nc3ccc(Br)cc3Cl)c(C(=O)NOCCO)cc21 + COc1c(OCCCN2CCOCC2)ccc2c3n(c(=NC(=O)c4cnc(N)nc4)nc12)CCN3,IC50,second compound 0.00316 µM,> 3 µM
same,IC50,second compound 0.01 µM,1.95 µM
same,IC50,second compound 0.0316 µM,0.718 µM
same,IC50,second compound 0.1 µM,0.156 µM
same,IC50,second compound 0.316 µM,0.0114 µM
same,IC50,second compound 1 µM,< 0.00949 µM
same,"viability, T/C","second compound 0.00316 µM, first compound 0.00949 µM",104%
same,"viability, T/C","second compound 0.00316 µM, first compound 0.03 µM",99.9%
same,"viability, T/C","second compound 0.00316 µM, first compound 0.0949 µM",92.1%
same,"viability, T/C","second compound 0.00316 µM, first compound 0.3 µM",86.6%
same,"viability, T/C","second compound 0.00316 µM, first compound 0.949 µM",75.6%
same,"viability, T/C","second compound 0.00316 µM, first compound 3 µM",57.5%
same,"viability, T/C","second compound 0.01 µM, first compound 0.00949 µM",107%
same,"viability, T/C","second compound 0.01 µM, first compound 0.03 µM",101%
same,"viability, T/C","second compound 0.01 µM, first compound 0.0949 µM",88.6%
same,"viability, T/C","second compound 0.01 µM, first compound 0.3 µM",85.6%
same,"viability, T/C","second compound 0.01 µM, first compound 0.949 µM",69%
same,"viability, T/C","second compound 0.01 µM, first compound 3 µM",38.7%
same,"viability, T/C","second compound 0.0316 µM, first compound 0.00949 µM",102%
same,"viability, T/C","second compound 0.0316 µM, first compound 0.03 µM",93%
same,"viability, T/C","second compound 0.0316 µM, first compound 0.0949 µM",81%
same,"viability, T/C","second compound 0.0316 µM, first compound 0.3 µM",67.2%
same,"viability, T/C","second compound 0.0316 µM, first compound 0.949 µM",45.3%
same,"viability, T/C","second compound 0.0316 µM, first compound 3 µM",16%
same,"viability, T/C","second compound 0.1 µM, first compound 0.00949 µM",81.5%
same,"viability, T/C","second compound 0.1 µM, first compound 0.03 µM",69.3%
same,"viability, T/C","second compound 0.1 µM, first compound 0.0949 µM",55.4%
same,"viability, T/C","second compound 0.1 µM, first compound 0.3 µM",43.1%
same,"viability, T/C","second compound 0.1 µM, first compound 0.949 µM",23.9%
same,"viability, T/C","second compound 0.1 µM, first compound 3 µM",3.88%
same,"viability, T/C","second compound 0.316 µM, first compound 0.00949 µM",50.8%
same,"viability, T/C","second compound 0.316 µM, first compound 0.03 µM",44.9%
same,"viability, T/C","second compound 0.316 µM, first compound 0.0949 µM",28.9%
same,"viability, T/C","second compound 0.316 µM, first compound 0.3 µM",18%
same,"viability, T/C","second compound 0.316 µM, first compound 0.949 µM",4.2%
same,"viability, T/C","second compound 0.316 µM, first compound 3 µM",1.79%
same,"viability, T/C","second compound 1 µM, first compound 0.00949 µM",21.7%
same,"viability, T/C","second compound 1 µM, first compound 0.03 µM",17.9%
same,"viability, T/C","second compound 1 µM, first compound 0.0949 µM",10.1%
same,"viability, T/C","second compound 1 µM, first compound 0.3 µM",3.9%
same,"viability, T/C","second compound 1 µM, first compound 0.949 µM",2.04%
same,"viability, T/C","second compound 1 µM, first compound 3 µM",1.34%
